According to ChEMBL document CHEMBL1141018, “Synthesis and biological evaluation of homopiperazine derivatives with beta-aminoacyl group as dipeptidyl peptidase IV inhibitors” (Bioorg Med Chem Lett, 2008):
pIC50: −log10 of the molar value.

What follows are molecules tested against Dipeptidyl peptidase 4 (Homo sapiens, UniProt P27487).
Sequence of Dipeptidyl peptidase 4 (P27487 whole entry): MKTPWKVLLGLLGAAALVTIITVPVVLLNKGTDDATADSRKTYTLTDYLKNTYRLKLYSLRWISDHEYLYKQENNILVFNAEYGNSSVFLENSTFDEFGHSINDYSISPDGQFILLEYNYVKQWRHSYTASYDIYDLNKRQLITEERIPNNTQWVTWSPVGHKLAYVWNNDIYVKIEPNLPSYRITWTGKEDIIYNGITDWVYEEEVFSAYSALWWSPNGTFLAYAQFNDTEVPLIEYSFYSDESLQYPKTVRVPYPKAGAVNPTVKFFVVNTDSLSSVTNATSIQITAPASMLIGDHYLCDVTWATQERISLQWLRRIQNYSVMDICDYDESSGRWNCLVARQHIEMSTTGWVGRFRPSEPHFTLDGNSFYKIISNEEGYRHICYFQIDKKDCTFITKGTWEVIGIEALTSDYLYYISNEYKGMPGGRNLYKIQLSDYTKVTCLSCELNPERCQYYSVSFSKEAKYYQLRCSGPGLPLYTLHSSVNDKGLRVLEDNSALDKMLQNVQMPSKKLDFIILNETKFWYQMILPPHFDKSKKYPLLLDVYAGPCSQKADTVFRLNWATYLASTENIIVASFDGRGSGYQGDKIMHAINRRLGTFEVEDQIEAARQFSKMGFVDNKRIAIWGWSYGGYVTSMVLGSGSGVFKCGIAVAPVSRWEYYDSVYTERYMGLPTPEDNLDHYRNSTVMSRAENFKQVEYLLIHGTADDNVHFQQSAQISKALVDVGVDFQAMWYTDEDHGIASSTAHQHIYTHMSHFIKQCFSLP
Work on `N[C@@H](CC(=O)N1CCCN(C(=O)c2ccc(C(=O)O)o2)CC1)Cc1cc(F)c(F)cc1F` yielded a pIC50 of 6.59.
For `N[C@@H](CC(=O)N1CCCN(S(=O)(=O)c2ccc(C(=O)O)cc2)CC1)Cc1cc(F)c(F)cc1F`, the pIC50 was 6.62.
Work on `N[C@@H](CC(=O)N1CCCN(C(=O)Nc2ccc(C(=O)O)cc2)CC1)Cc1cc(F)c(F)cc1F` yielded a pIC50 of 6.10.
In the case of `NC(=O)c1ccc(C(=O)N2CCCN(C(=O)C[C@H](N)Cc3cc(F)c(F)cc3F)CC2)cc1`, the pIC50 was 6.74.
`N[C@@H](CC(=O)N1CCCN(C(=O)c2ccc(S(N)(=O)=O)cc2)CC1)Cc1cc(F)c(F)cc1F` showed a pIC50 of 6.54.
In the case of `N[C@@H](CC(=O)N1CCCN(C(=O)c2ccc(C(=O)O)nc2)CC1)Cc1cc(F)c(F)cc1F`, the pIC50 was 6.82.
Work on `N[C@@H](CC(=O)N1CCCN(C(=O)c2cccc(C(=O)O)c2)CC1)Cc1cc(F)c(F)cc1F` yielded a pIC50 of 7.30.
`N[C@@H](CC(=O)N1CCCN(C(=O)c2cncc(C(=O)O)c2)CC1)Cc1cc(F)c(F)cc1F` was tested, and the pIC50 was 7.17.
`CC(=O)N1CCCN(C(=O)C[C@H](N)Cc2cc(F)c(F)cc2F)CC1` showed a pIC50 of 5.47.
With `N[C@@H](CC(=O)N1CCCN(C(=O)c2ccc3c(c2)OCO3)CC1)Cc1cc(F)c(F)cc1F` the pIC50 was 6.31.
`CCN1CCCN(C(=O)C[C@H](N)Cc2cc(F)c(F)cc2F)CC1` showed a pIC50 of 5.19.
With `N[C@@H](CC(=O)N1CCCN(c2cnccn2)CC1)Cc1cc(F)c(F)cc1F` the pIC50 was 6.37.
`N[C@@H](CC(=O)N1CCCN(C(=O)c2cccnc2)CC1)Cc1cc(F)c(F)cc1F` was tested, and the pIC50 was 6.39.
Work on `N[C@@H](CC(=O)N1CCCN(C(=O)OCc2ccccc2)CC1)Cc1cc(F)c(F)cc1F` yielded a pIC50 of 6.31.
Molecule `CN1CCN(C(=O)N2CCCN(C(=O)C[C@H](N)Cc3cc(F)c(F)cc3F)CC2)CC1` has a pIC50 of 5.82.
In the case of `Cc1ccc(S(=O)(=O)N2CCCN(C(=O)C[C@H](N)Cc3cc(F)c(F)cc3F)CC2)cc1`, the pIC50 was 6.46.
In the case of `CS(=O)(=O)N1CCCN(C(=O)C[C@H](N)Cc2cc(F)c(F)cc2F)CC1`, the pIC50 was 5.51.
`N[C@@H](CC(=O)N1CCCN(S(=O)(=O)c2ccc([N+](=O)[O-])cc2)CC1)Cc1cc(F)c(F)cc1F` gave a pIC50 of 6.39.
In the case of `N[C@@H](CC(=O)N1CCCN(C(=O)c2ccccc2)CC1)Cc1cc(F)c(F)cc1F`, the pIC50 was 6.29.
Work on `N[C@@H](CC(=O)N1CCCNCC1)Cc1cc(F)c(F)cc1F` yielded a pIC50 of 5.84.
`N[C@@H](CC(=O)N1CCCN(c2ncccn2)CC1)Cc1cc(F)c(F)cc1F` was tested, and the pIC50 was 6.22.
With `N[C@@H](CC(=O)N1CCCN(Cc2ccccc2)CC1)Cc1cc(F)c(F)cc1F` the pIC50 was 6.41.
`N[C@@H](CC(=O)N1CCCN(C(=O)Nc2ccccc2)CC1)Cc1cc(F)c(F)cc1F` was tested, and the pIC50 was 5.86.

Each molecule was assayed against Dipeptidyl peptidase 2 (Homo sapiens, UniProt Q9UHL4) (assay: Inhibition of DPP2).
In the case of `N[C@@H](CC(=O)N1CCCN(C(=O)c2cccc(C(=O)O)c2)CC1)Cc1cc(F)c(F)cc1F`, the pIC50 was 4.33.
In the case of `N[C@@H](CC(=O)N1CCCN(C(=O)c2cncc(C(=O)O)c2)CC1)Cc1cc(F)c(F)cc1F`, the pIC50 was 4.00.
